According to patent publication US20090306035A1, “Compounds and Methods for modulating the Silencing of a Polynucleotide of Interest” (Emory University, priority 2005, published 2009):

Assays:
Type in all cases: cell-based
miR-30a-3p = assay: miRNA sensor (Luc-T30 reporter with miR-30a-3p target sites), dual luciferase assay of HepG2 cells; details: reporter with miR-30 target sequence, endogenously expressed miR-30, FIG. 7
Procedure: In FIG. 6, top left panel, the blue arrowheads in Luc-T30 indicate artificial target sequence against miR-30a-3p. Luc-AT30 has an artificial sequence complementary to that in Luc-T30. […] Relative luciferase activity was calculated by dividing the reporter (Firefly) luciferase activity with co-transfected Renilla luciferase activity. Luciferase activity was decreased by transfecting Luc-T30 in HepG2 (orange bars) without changes in the amount of its mRNA (blue bars). Error bars represent the standard deviation (SD) of three triplicate experiments. […] Error bars represent the standard deviation (SD) from three triplicate experiments. **P=0.004; *****P=0.00001.
This reporter contains the target sequence of miR-30. In the miR-30 system, the endogenously expressed miR-30 was used and, in this cell line, miR-30 has been processed completely. Thus, the addition of enoxacin had no effect.

[1] = system: shRNA against Luciferase mRNA; assay: GL-3 luciferase reporter transfected into cells expressing shRNA against Luciferase mRNA; details: GL-3 luciferase plus shLuc, FIG. 5
From the text: In this example, a luciferase reporter construct GL-3 was transfected into the cells expressing shRNA against Luciferase mRNA.

[2] = system: siRNA-mediated mRNA degradation and gene knock-down (GFP siRNA); assay: GFP reporter screen: 293 cells stably expressing GFP and an siRNA hairpin against GFP; details: human 293 cells, GFP reporter with siRNA hairpin against GFP; Spectrum Collection screen
Procedure: FIG. 2 discloses one embodiment of the cell-based reporter system of the invention. In this example, a human 293-cell line stably expressing a reporter gene, GFP, was used. This cell line was further transfected with a construct that expresses siRNA hairpin against GFP, which can decrease the level of GFP expression. Individual clones were isolated with greatly (although not completely) reduced GFP expression.
Using the above-identified clones, a screen was performed using The Spectrum Collection (MicroSource Discovery Systems, Inc., Gaylordsville, Conn., United States of America), which contains 2000 biologically active and structurally diverse compounds from libraries of known drugs, experimental bioactives, and pure natural products. For example, in one embodiment, a pilot screen of this library identified one inhibitor and one enhancer of siRNA-mediated mRNA degradation.
To identify the chemical compounds that modulate the siRNA and miRNA pathway, a screening strategy was used. A human 293-cell line stably expressing a reporter gene, GFP, was used. This cell line was further transfected with a construct that expresses siRNA hairpin against GFP, which could knock down the expression of GFP. […]

| Structure (SMILES) | miRNA-mediated translational suppression (miR-30a-3p) | knock-down efficiency of shRNA against luciferase mRNA (relative luciferase activity) [1] | effect on siRNA-mediated mRNA degradation and gene knock-down [2] | knock-down efficiency of shRNA against luciferase mRNA (relative luciferase activity) ([1]; listed as ciproflaxin) |
| --- | --- | --- | --- | --- |
| COc1cc(C(=O)NCc2ccc(OCCN(C)C)cc2)cc(OC)c1OC [RNAi-I] | released the miRNA-mediated translational suppression |  |  |  |
| CCn1cc(C(=O)O)c(=O)c2cc(F)c(N3CCNCC3)nc21 [enoxacin] | no effect | increased the knock-down efficiency | enhance siRNA-mediated mRNA degradation and gene knock-down |  |
| COc1cc(C(=O)NCc2ccc(OCCN(C)C)cc2)cc(OC)c1OC [trimethobenzamide] |  |  | inhibit siRNA-mediated mRNA degradation and gene knock-down |  |
| O=C(O)c1cn(C2CC2)c2cc(N3CCNCC3)c(F)cc2c1=O [ciprofloxacin] |  | enhance siRNA-mediated mRNA degradation |  | increased the knock-down efficiency |
